Structures can show the parent of a compound that is named as a salt.
How the values were obtained:
[1] = tested on: women; settings: widely used for years; cited from earlier work
[2] = tested on: women; assay: unpublished clinical study of DHEA cream (transdermal) or pellets (subcutaneous) in women; assay type: in vivo, human
Excerpt: A third embodiment of the present invention comprises a new use of a well-established steroid hormone. The invention includes both the topical application of the hormone in cream form and the subcutaneous implantation of the hormone in pellet form for the purpose of female sexual enhancement.
The hormone is dehydroepiandrosterone (DHEA) and the carrying agent for its topical use is a proprietary compound, Q-base cream. Q-base cream is available to compound pharmacies all over the United States and consists of the following formulation: • purified water, cyclomethicone, octyl stearate, arlacel 165 (PEG-100 stearate/glyceryl stearate), sorbitol, green tea extract (organic), stearyl alcohol, cyclopentasiloxane and PEG/PPG-18/18 dimethicone, gingko extract (organic), ginseng extract (organic), tocotrienols, vitamin E acetate, wheat germ oil, edetate disodium, xanthan gum, vitamin A palmitate, coenzyme Q10, methylchloroisothiazolinone/methylisothiazolin one.
Alternatively, the carrying agent for the DHEA may comprise H-base cream. The formula for H-base cream is as follows: • water, glycerin, canola oil, stearic acid, cetyl alcohol, PEG-100 stearate, glyceryl stearate, dimethicone, magnesium aluminum silicate, propylene glycol, triethanolamine, polysorbate 60, xanthan gum, bitter almond kernel oil, aloe vera, grape seed extract, wheat germ oil, vitamin E acetate, vitamin A palmitate, Vitamin C palmitate, tetrasodium EDTA, potassium sorbate, diazolidinyl urea. H base cream is a proprietary product produced by Professional Compounds Centers of America and licensed by it.
The method of application of either the Q-base cream/DHEA mixture or the H-base cream/DHEA mixture in females is local application to the erectile tissue of the nipples and glans clitoris. The ratio of ingredients comprising the Q-base cream/DHEA mixture is between about 25 mg and about 50 mg of DHEA to about 1 cc of Q-base cream. The ratio of ingredients comprising the H-base cream/DHEA mixture is substantially the same. The resulting mixture is applied one time per day but not related to intercourse. Implantation of subcutaneous DHEA pellets is at the strength of about 25 mg of DHEA per pellet at intervals of between about 2 months and about 3 months. […] Normal levels are considered to be 50-100 picograms per milliliter.
In an unpublished clinical study of the third embodiment of the invention over the past three years patient acceptance and satisfaction has been clear-cut and in excess of 95%. The response is dependent on the patient having normal blood levels of estradiol and testosterone as well. A normal level of DHEA is about 50 to about 100 picograms per milliliter. A normal level of estradiol is about 50 to about 100 picograms per milliliter and a normal level of testosterone is about 200 to about 540 picograms per milliliter. Normal ranges for all these levels can vary from laboratory to laboratory.

[3] = tested on: women; settings: headaches, facial flushing, nasal congestion, indigestion, bluish tinge to vision, blindness; cited from earlier work
[4] = tested on: women; settings: normal estradiol and testosterone levels not established before the drug was used; cited from earlier work
[5] = tested on: women; assay: administration of vardenafil hydrochloride or tadalafil to women prior to sexual activity; assay type: in vivo, human
Description: More particularly, the initial step in the process comprising the first embodiment of the invention comprises identifying a woman desiring sexual enhancement. […] Thereafter, the woman's blood is tested to determine the levels of estradiol and testosterone. If the woman's blood contains an estradiol level within a first predetermined range and a testosterone level within a second predetermined range, the process of the present invention continues. If not, the woman is treated utilizing conventional techniques to bring the level of estradiol in her blood to within the first predetermined range and/or to bring the level of testosterone in her blood to within the second predetermined range. […]
After the required levels of estradiol and testosterone in the woman's blood have either been confirmed or established, a drug selected from the group consisting of vardenafil hydrochloride and tadalafil is administered to the woman prior to sexual activity. […] It has been determined that the selected drug should be administered at least 15-20 minutes prior to the beginning of sexual activity. The optimum time interval between administration of the selected drug and the beginning of sexual activity may vary depending on the particular circumstances and is best determined by the woman through experimentation. […]

**Q.** For `CN1CC(=O)N2[C@H](c3ccc4c(c3)OCO4)c3[nH]c4ccccc4c3C[C@@H]2C1=O` [tadalafil], which safety profile [1] is on record?
**A.** The safety profile was “remarkable safety profiles”.

**Q.** Which “blood levels, cream versus subcutaneous pellets” value ([2]; cream once per day versus about 25 mg pellet every 2 to 3 months) does the source give for `C[C@]12CC[C@H](O)CC1=CC[C@@H]1[C@@H]2CC[C@]2(C)C(=O)CC[C@@H]12` [DHEA, dehydroepiandrosterone] here?
**A.** Its value is “Identical blood levels are achieved with both methods of application”.

**Q.** What about the “patient acceptance and satisfaction” value ([2]; third embodiment, over the past three years, normal blood levels of estradiol and testosterone) of the same compound?
**A.** The value was greater than 95%.

**Q.** And the “female sexual pleasure and satisfaction including sexual arousal and achievement of orgasm” value ([2]; transdermal or subcutaneous, women with normal estradiol and testosterone)?
**A.** The value was “enhanced”.

**Q.** And the “blood level above which excess androgen complications occur (male pattern hair loss, excess facial hair growth, acne)” value ([2]; women)?
**A.** Its value is “exceed 100 picograms per milliliter”.

**Q.** And the “safety profile of administration” value ([2]; women)?
**A.** Its value is “extraordinary”.

**Q.** Which “side effects observed in women using the drug for sexual enhancement” value [3] does the source give for `CCCc1nn(C)c2c(=O)[nH]c(-c3cc(S(=O)(=O)N4CCN(C)CC4)ccc3OCC)nc12` [VIAGRA, sildenafil citrate] here?
**A.** The value was “unacceptable side effects”.

**Q.** Which results are given for `CCCc1nc(C)c2c(=O)[nH]c(-c3cc(S(=O)(=O)N4CCN(CC)CC4)ccc3OCC)nn12` [vardenafil hydrochloride]?
**A.** efficacy in women [4]: ineffective in women; enhancement of sexual arousal and sexual satisfaction in females ([5]; drug given prior to sexual activity): significant enhancement; efficacy in women compared with men ([5]; experiences over the past 2 years, lower dosage, used correctly (normal estradiol and testosterone)): even more effective (lower dosage) in women than in men; safety profile [1]: remarkable safety profiles
